Test results from patent publication US20050059684A1, “Method for reducing residual alcohols in crystalline valacyclovir hydrochloride” (priority 2002, published 2005).
Counter-ions that a name gives are not always drawn.

Assay: Storage stability of valacyclovir hydrochloride: N′-formylvalacyclovir impurity level by HPLC
Format: physicochemical
Conditions: HPLC area percent; for N′-formylvalacyclovir level (area %), T = 0: before storage; for N′-formylvalacyclovir level (area %), T = 3 month, 25° C., 60% humidity: stored three months at 25° C. and 60% RH; for N′-formylvalacyclovir level (area %), T = 3 month, 40° C., 75% humidity: stored three months at 40° C. and 75% RH
From the text: When used herein in connection with the absolute amount of an impurity, percent refers to area percent of the corresponding impurity peak on the chromatogram obtained by high pressure liquid chromatography. [drawing 2]
Impurities in valacyclovir, especially N′-formylvalacyclovir, can be measure by high pressure liquid chromatography. The chromatographic method utilizes a suitable chromatography column such as the reverse phase column Inertsil ODS-3V 5 μm 150×4.6 mm (GL Sciences, Cat. No. 5020-01731). The eluent is preferably acetonitrile (27%) and water (73%) containing 0.05% phosphoric acid (0.5 g 85% H3PO4 in 1 L water). A flow rate of about 1.0 mL/min is suitable for the separation. The column temperature can be at ambient temperature, preferably about 25° C. The detector can be a UV-spectrophotometer operating in the range of 200-600 nm, preferably about 210 nm. The injection (sample) volume is about 50 μL. The diluent used to load the sample onto the column can be, for example, the eluent.
A sample of valacyclovir hydrochloride (sample X) having circa 1700 ppm residual solvent isopropanol was divided into two portions. One portion was treated by the method of the present invention and, after treatment, had less than 500 ppm residual isopropanol (sample Y). Sample Y and the non-treated portion of sample X were each divided into two roughly equal portions. One portion of each samplewas stored at 25° C. and 60% RH for three months, the other portions of each were stored at 40° C. and 75% RH for three months. The amount of N′-formylvalacyclovir in each of the four portions after storage was determined by HPLC.

With `CC(C)C(N)C(=O)OCCOCn1cnc2c(=O)nc(N)[nH]c21` (stereo not drawn) [X, valacyclovir hydrochloride] the “N′-formylvalacyclovir level (area %), T = 0” value was 0.05 area %, the “N′-formylvalacyclovir level (area %), T = 3 month, 25° C., 60% humidity” value was 0.08 area % and the “N′-formylvalacyclovir level (area %), T = 3 month, 40° C., 75% humidity” value was 0.15 area %.

With `CC(C)C(N)C(=O)OCCOCn1cnc2c(=O)nc(N)[nH]c21` (stereo not drawn) [Y, valacyclovir hydrochloride] the “N′-formylvalacyclovir level (area %), T = 0” value was 0.03 area %, the “N′-formylvalacyclovir level (area %), T = 3 month, 25° C., 60% humidity” value was 0.03 area % and the “N′-formylvalacyclovir level (area %), T = 3 month, 40° C., 75% humidity” value was 0.05 area %.
